# What was measured:
# human CaSR = target: T1, human CaSR (Homo sapiens, UniProt P41180); assay: Functional whole cell assay (modulation of human CaSR), IP1 accumulation in CHO-K1 cells; type: cell-based; details: CHO-K1 cells stably expressing human CaSR, final Ca2+ 1.9 mM, IP1 readout; concentration giving 50% of maximum agonistic response
# T1 construct: The ORF coding for the human CaSR (genebank: NM_000388)
# T1 sequence (P41180 20-1078): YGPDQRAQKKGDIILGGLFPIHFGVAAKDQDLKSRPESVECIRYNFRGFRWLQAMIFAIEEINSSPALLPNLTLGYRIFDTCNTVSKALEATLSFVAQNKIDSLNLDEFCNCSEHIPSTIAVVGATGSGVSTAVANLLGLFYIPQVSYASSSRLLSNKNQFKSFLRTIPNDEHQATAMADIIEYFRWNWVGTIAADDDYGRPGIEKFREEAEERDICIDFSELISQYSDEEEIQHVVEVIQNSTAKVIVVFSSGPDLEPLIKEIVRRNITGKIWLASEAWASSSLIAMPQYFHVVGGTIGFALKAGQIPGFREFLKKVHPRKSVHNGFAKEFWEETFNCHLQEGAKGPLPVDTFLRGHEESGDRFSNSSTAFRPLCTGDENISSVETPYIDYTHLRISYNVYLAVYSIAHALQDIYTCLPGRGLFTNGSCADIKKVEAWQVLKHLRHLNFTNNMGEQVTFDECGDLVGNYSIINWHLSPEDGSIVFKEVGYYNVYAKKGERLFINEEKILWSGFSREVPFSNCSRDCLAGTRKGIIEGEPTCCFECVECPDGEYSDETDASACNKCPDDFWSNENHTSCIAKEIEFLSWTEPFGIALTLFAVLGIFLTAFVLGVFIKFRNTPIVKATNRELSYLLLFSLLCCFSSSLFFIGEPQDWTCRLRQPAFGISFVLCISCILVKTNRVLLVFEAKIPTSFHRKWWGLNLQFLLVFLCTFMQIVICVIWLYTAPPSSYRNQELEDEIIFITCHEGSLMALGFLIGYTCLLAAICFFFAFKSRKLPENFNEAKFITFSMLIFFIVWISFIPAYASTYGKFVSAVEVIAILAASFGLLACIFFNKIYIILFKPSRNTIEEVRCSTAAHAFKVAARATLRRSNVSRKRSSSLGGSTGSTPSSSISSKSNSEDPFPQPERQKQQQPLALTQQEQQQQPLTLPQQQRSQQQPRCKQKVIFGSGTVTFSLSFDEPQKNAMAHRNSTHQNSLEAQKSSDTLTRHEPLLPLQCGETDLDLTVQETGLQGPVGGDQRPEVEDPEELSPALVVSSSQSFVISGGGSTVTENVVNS
# Description: The assay investigates a compound's functional ability to act as a biological positive modulator on the human CaSR. Activation of the receptor expressed on CHO-K1 cells is detected through the G alpha q pathway, the activation of phospholipase C and the accumulation of intracellular inositol phosphate (IP) as described earlier [Sandrine Ferry, Bruno Chatel, Robert H. Dodd, Christine Lair, Danielle Gully, Jean-Pierre Maffrand, and Martial Ruat. Effects of Divalent Cations and of a Calcimimetic on Adrenocorticotropic Hormone Release in Pituitary Tumor Cells. Biochemical and biophysical research Communications 238, 866-873 (1997)]. The human CaSR is stably expressed on a CHO-K1 cell clone, stimulated with a basal level of calcium and challenged with the tested compound. The level of IP1 is determined using the IP-One Terbium htrf kit (Cisbio, France). CHO-K1 cells not transfected with the CaSR fail to elicit an IP1 response upon calcium and/or compound stimulation.
# The ORF coding for the human CaSR (genebank: NM_000388) was acquired from Invitrogen Corp, USA and subsequently cloned into the mammalian expression vector pCDA3.1.
# CHO-K1 cells were transfected using Lipofectamine according to manufacturer's protocol (400.000 cells/well were seeded in a 6-well plate and transfected after 24 hours using 2 μg DNA and 5 μl lipofectamine). After another 24 hours the cells were detached, seeded and subjected to 1 mg/ml of G-418. Following 7 days growth single clones were picked, the CaSR expression evaluated using the 5C10 antibody against CaSR, the clones with the highest expression were selected and tested for functional response. The preferred clone was cultured according to standard procedures described in ATCC (American Type Culture Collection) protocols for CHO-K1 with the addition of 500 μg/ml G-418.
# On the assay day, cells were thawed, harvested and resuspended to 4*10^6 cells/ml in stimulation buffer (containing: Hepes 10 mM, MgCl2 0.5 mM, KCl 4.2 mM, NaCl 146 mM, glucose 5.5 mM, LiCl 50 mM, BSA 0.5% at pH 7.4). Ten μl cell solution was pipetted into wells of a white 384-well plate (Perkin Elmer Optiplate) containing 2 μl compound diluted in assay buffer (containing: Hepes 10 mM, MgCl2 0.5 mM, KCl 4.2 mM, NaCl 146 mM, glucose 5.5 mM, LiCl 50 mM, CaCl2 11.4 mM at pH 7.4), resulting in a final Ca^2+ concentration of 1.9 mM. After compound stimulation for 1 hour at 37° C. and 15 min at room temperature, 10 ul of IP-One assay detection reagent (prepared as described by the IP-One assay kit manufacturer) was added and the plate was incubated for another 1 hour at room temperature. Finally the plate was read using a Perkin Elmer EnVision, according to the protocol supplied by the IP-One assay kit manufacturer. The FRET ratio was calculated by dividing the 665 nm emission signal with that of the 615 nm.
# The molar concentration of a compound that produces 50% of the maximum agonistic response (the […] value) is calculated according to the equation “General sigmoidal curve with Hill slope, a to d” (Equation 1). This model describes a sigmoidal curve with an adjustable baseline. The equation can be used to fit curves where response is either increasing or decreasing with respect to the independent variable, X.
# y=(a−d)/(1+(x/c)̂b)+d Equation 1.
# x=concentration of tested compound y=response (%) a=min response as compound concentration approaches 0 d=max response as concentration of tested compound is increasing c=IC50 for the curve b=Hill coefficient or curve slope
# [1] = Clearance in human liver microsomes; type: in vitro ADME; details: hepatic extraction ratio; 0.5 μM compound, 0.5 mg/mL microsomes, 1 mM NADPH, 30 min
# Protocol: Test compound concentration is 0.5 μM, microsome concentration is 0.5 mg/mL and NADPH concentration is 1 mM in the incubation. The described method is performed by the liquid handling system Tecan RSP and is based on a 96-well format.
# Control incubations with test compound without NADPH and test compound without microsomes are conducted to investigate non-CYP mediated metabolism and stability in phosphate buffer at 37° C., respectively.
# The human liver microsomal suspension in phosphate buffer is mixed with NADPH. The mixture is pre-heated (7 min) to 37° C. Test compound is added, and the mixture is incubated for 30 minutes. Incubations are run in duplicate. Samples are withdrawn at predetermined stop times and mixed with methanol containing internal standard (IS) to terminate all enzyme activity and precipitate proteins. A control without NADPH (to detect problems such as nonspecific protein binding, heat instability or non-CYP mediated metabolism) and a control without microsomes (for assessing compound stability in the absence of any active enzymes) are tested.
# The percentage of organic solvent in the incubations is less than 1%. Careful inspections of reagents are performed prior to the start of any experiment to ensure all reagents are in solution.
# The 96-well plates are centrifuged. Test compound depletion, using a compound specific LC/MS/MS method, is determined.
# The logarithm of the peak area ratios of test compound to internal standard (IS) versus incubation time is plotted in a graph.
# The rate constant (k) (min^−1) of test compound depletion is calculated from the linear part of the curve and the half-time (t1/2) in minutes can be calculated from the rate constant (Eq. 2).
# Intrinsic clearance (Clint) (mL/min/mg protein) is calculated from: […]
# where c is the microsomal protein concentration in mg/mL.
# Intrinsic clearance is the maximum ability of the liver to extract a drug in the absence of blood flow restrictions.
# Conversion to apparent clearance (Clapp) (mL/min/kg) is done by Eq. 4:
# Clapp=Clint×a×b/d (Eq. 4)
# where a, b and d are the scaling factors for normalizing Clint to human body weight.
# The following human scaling factors are used:
# a: 45 (microsomal protein/liver weight (mg/g)) b: 1500 (liver weight (g)) d: 70 (body weight (kg))
# Hepatic clearance (Clh) (mL/min/kg) based on the well-stirred model is described as followed:
# Clh=(Clapp·Q)/(Clapp+Q) (Eq. 5)
# where Q is the liver blood flow in mL/min/kg (20 in humans).
# Dividing hepatic clearance with liver blood flow, the hepatic extraction ratio (%) can be calculated:
# Apparent clearance below approximately 10 mL/min/kg human body weight (corresponding to extraction ratio of approx. 33%) is considered as low clearance (high metabolic stability). Apparent intrinsic clearance above approximately 60 mL/min/kg human body weight (corresponding to extraction ratio of approx. 75%) is considered as high clearance (low metabolic stability).
EC50 (human CaSR),Clearance (% Eh) in human liver microsomes [1],SMILES
0.2 to 1 µM,A (A: Eh < 33%),"C[C@@H](N[C@H]1CC[C@@H](c2ccc(NCCS(N)(=O)=O)nc2)C1)c1cccc2c1OCO2 [Compound 114, 2-[[5-[(1R,3S)-3-[[(1R)-1-(1,3-Benzodioxol-4-yl)ethyl]amino]cyclopentyl]-2-pyridyl]amino]ethanesulfonamide]"
0.2 to 1 µM,A (A: Eh < 33%),"CCOc1cccc([C@@H](C)N[C@H]2CC[C@@H](c3ccc(N4CCNC(=O)C4)nc3)C2)c1 [Compound 117, 4-[5-[(1R,3S)-3-[[(1R)-1-(3-Ethoxyphenyl)ethyl]amino]cyclopentyl]-2-pyridyl]piperazin-2-one]"
0.2 to 1 µM,A (A: Eh < 33%),"C[C@@H](N[C@H]1CC[C@@H](c2ccc(NCCS(N)(=O)=O)nc2)C1)c1cccc(Cl)c1 [Compound 121, 2-[[5-[(1R,3S)-3-[[(1R)-1-(3-Chlorophenyl)ethyl]amino]cyclopentyl]-2-pyridyl]amino]ethanesulfonamide]"
0.2 to 1 µM,A (A: Eh < 33%),"COc1cc([C@@H](C)N[C@H]2CC[C@@H](c3cnc(NCCNS(C)(=O)=O)nc3)C2)ccc1F [Compound 123, N-[2-[[5-[(1R,3S)-3-[[(1R)-1-(4-Fluoro-3-methoxy-phenyl)ethyl]amino]cyclopentyl]pyrimidin-2-yl]amino]ethyl]methanesulfonamide]"
